# Measured values as given in patent US20220193067A1, “QUINOLINE COMPOUND OR PHARMACEUTICALLY ACCEPTABLE SALT THEREOF FOR TREATING EWING'S SARCOMA” (CHIA TAI TIANQING PHARMACEUTICAL GROUP CO., LTD., priority 2019, published 2022).
# Counter-ions that a name gives are not always drawn.
# How the values were obtained:
# [1] = tested on: human Ewing's sarcoma cells A673; assay: Effect on growth of Ewing's sarcoma, A673 subcutaneous xenograft in nude mice; format: in vivo, BALB/cA-nude mice; settings: 6.25 mg/kg orally daily for 14 consecutive days; A673 subcutaneous tumors in nude mice
# Method: The dihydrochloride salt of the compound of formula I was dissolved in water to a concentration of 25 mg/mL and then further diluted with distilled water to a concentration of […].
# BALB/cA-nude mice, feeding environment: SPF grade. Nude mice were inoculated subcutaneously with human Ewing's sarcoma cells A673, and randomly grouped (d0) after tumors grew to 100-250 mm^3.
# The dihydrochloride of the compound of formula I (a dosage of 6.25 mg/kg) was orally administered daily to the animals in a volume of 10 mL/kg for 14 consecutive days. The tumor volume was measured 2-3 times per week, the mice were weighed, and the data was recorded.
# The equation for calculating tumor volume (V) is as follows: V=½×a×b^2, where a and b represent length and width, respectively.
# T/C (%)=(T-T0)/(C-C0)×100%, where T and C represent the tumor volumes of the administration group mice and the control group (i.e., solvent group) mice, respectively, at the end of the experiment; T0 and C0 represent the tumor volumes of administration group mice and the control group (i.e., solvent group) mice, respectively, at the time of grouping and administration (d0).
# The equation for calculating relative tumor volume (RTV) after administration is as follows: RTV=TV/TV0 (TV represents tumor volume at each measurement after administration, and TV0 represents tumor volume at the time of grouping and administration (d0)).
# [2] = tested on: Human Ewing's sarcoma cell line A673; assay: Proliferation of Ewing's sarcoma cells (MTT method), combination with VAC-2 regimen; format: cell-based; settings: combined with 2 μg/mL vincristine, 75 μg/mL doxorubicin and 500 μg/mL cyclophosphamide
# Method: The test drugs were dissolved in dimethyl sulfoxide to prepare a 100 mmol/L mother solution, which was stored at −20° C. for later use. When in use, the mother solution was prepared with a DMEM serum culture medium to reach a required concentration; vincristine, doxorubicin and cyclophosphamide were mixed (VAC-2 regimen), and the dihydrochloride diluent of the compound of formula I was mixed with vincristine, doxorubicin and cyclophosphamide. […]
# The ICso value can be measured by a conventional method in the art (e.g., MTT method), or can be measured by the following method (MTT method):
# Cells in logarithmic growth phase were inoculated in a 96-well culture plate (180 μL/well, 10^5 cells/well); after 2 h of incubation at 37° C./5% CO2, the cells were added with the dihydrochloride of the compound of formula I (solutions at gradient concentrations of 0, 0.005, 0.1, 0.05, 0.1, 0.5, 1.5, 4, 12 and 30 μg/mL), 2 μg/mL vincristine, 75 μg/mL doxorubicin and 500 μg/mL cyclophosphamide, and the resulting mixtures were incubated. […] The next day, OD values were measured at 570 nm and 630 nm wavelengths using a microplate reader (SPECTRA max 190) (calculated by subtracting OD values measured at 630 nm (the control wavelength) from all OD values measured at 570 nm), and the cell growth inhibition rate was calculated according to the following equation: […]
# [3] = tested on: Human Ewing's sarcoma A673 cells; assay: Apoptosis of Ewing's sarcoma cells, Annexin-V-FITC/PI flow cytometry; format: cell-based; settings: different concentrations (0-30 μg/mL) added to vincristine+doxorubicin+cyclophosphamide; 24 h
# Method: Human Ewing's sarcoma A673 cells in logarithmic growth phase were added at 10^5 cells/well to a DMEM complete culture medium containing 2 μg/mL vincristine, 75 μg/mL doxorubicin and 500 μg/mL cyclophosphamide, and to a DMEM complete culture medium containing the dihydrochloride of the compound of formula I (at concentrations of 0, 0.005, 0.1, 0.05, 0.1, 0.5, 1.5, 4, 12 and 30 μg/mL), 2 μg/mL vincristine, 75 μg/mL doxorubicin and 500 μg/mL cyclophosphamide. The resulting mixtures were incubated for 24 h, and then the cells were collected, centrifuged at 1000 r/min for 3-5 min, and washed with PBS. Then the apoptosis of the cells was detected using an Annexin-V-FITC/PI apoptosis detection kit. The cells were resuspended in 100 μL of 1×Binding buffer solution, and 5 μL of Annexin-V-FITC and 2.5 μL of PI dye were added. The mixture was shaken and mixed well in the absence of light, reacted for 15 min at room temperature, added with 300 μL of 1×Binding buffer solution, mixed well, and then subjected to detection by a flow cytometer. The test was repeated 3 times.
# [4] = tested on: Ewing's sarcoma patients; assay: Clinical trial of capsule combined with VAC-2 regimen in Ewing's sarcoma patients; format: in vivo, human; settings: 12 mg capsule orally once daily, 2 weeks on/1 week off
# Method: A clinical trial was carried out in Ewing's sarcoma patients with measurable lesions (according to RECIST 1.1) for the combination of the dihydrochloride capsule of the compound of formula I and a second therapeutic agent (VAC-2 regimen). Patients in the patient group comprised patients who had previously received chemotherapy and those who had not. The patients were orally administered with 12 mg of the dihydrochloride capsule of the compound of formula I once daily (2 weeks of treatment and 1 week of interruption constitute one treatment cycle), and meanwhile the patients were treated with the VAC-2 regimen: intravenous infusion of 2 mg of vincristine on day 1, intravenous infusion of 75 mg/m^2 of doxorubicin on day 1, and intravenous infusion of 1200 mg/m^2 of cyclophosphamide on day 1 (28 days constitute one cycle). The evaluation endpoints included: efficacy endpoints, e.g., progression-free survival (PFS), objective response rate (ORR), duration of response (DOR), stable disease (SD) rate, clinical benefit rate (CBR), overall survival (OS), etc.; safety endpoints, e.g., incidence and severity of adverse events; and quality of life.
structure (smiles),measurement,setting,value
COc1cc2c(Oc3ccc4[nH]c(C)cc4c3F)ccnc2cc1OCC1(N)CC1 [1-1-[[[4-(4-fluoro-2-methyl-1H-indol-5-yl)oxy-6-methoxyquinolin-7-yl]oxy]methyl]cyclopropylamine dihydrochloride],growth of Ewing's sarcoma,[1],significantly inhibit the growth of Ewing's sarcoma
same,inhibition effect on proliferation of A673 cells,[2],definite inhibition effect
same,apoptosis caused by the VAC-2 regimen,[3],remarkably enhance apoptosis
same,overall survival,[4],can prolong overall survival
same,treatment of Ewing's sarcoma (efficacy),[4],effective for treatment of Ewing's sarcoma
